Legend:
U-937 [1] = assay: Induction of apoptosis in human U-937 cells assessed as late apoptotic cells at 2.5 uM incubated for 48 hrs by annexin V-FITC/PI satining based flow cytometry (reference value: 4.23 %); assay type: functional
U-937 [2] = assay: Induction of apoptosis in human U-937 cells assessed as viable cells at 2.5 uM incubated for 48 hrs by annexin V-FITC/PI satining based flow cytometry (reference value: 93.7 %); assay type: functional; conditions: read-out: Activity
HL-60 [3] = assay: Induction of differentiation in human HL-60 cells assessed as increase in CD11b positive cells at 0.6 uM incubated for 24 hrs by FITC staining based flow cytometry (reference value: 1.12 %); assay type: functional
HL-60 [4] = assay: Induction of differentiation in human HL-60 cells assessed as increase in CD11b positive cells at 1.2 uM incubated for 24 hrs by FITC staining based flow cytometry (reference value: 1.12 %); assay type: functional
U-937 [5] = assay: Induction of differentiation in human U-937 cells assessed as increase in CD11b positive cells at 1.2 uM incubated for 48 hrs by FITC staining based flow cytometry (reference value: […] %); assay type: functional
HL-60 [6] = assay: Induction of differentiation in human HL-60 cells assessed as increase in CD11b positive cells at 5 uM incubated for 24 hrs by FITC staining based flow cytometry (reference value: 1.12 %); assay type: functional
U-937 [7] = assay: Induction of apoptosis in human U-937 cells assessed as early apoptotic cells at 1 uM incubated for 48 hrs by annexin V-FITC/PI satining based flow cytometry (reference value: 0.945 %); assay type: functional
Histone deacetylase 5 = Histone deacetylase 5 (Homo sapiens, UniProt Q9UQL6); assay: Inhibition of recombinant human HDAC5 using HDAC substrate incubated for 30 mins by fluorescence based assay
Chain of Histone deacetylase 5 (Q9UQL6 whole entry): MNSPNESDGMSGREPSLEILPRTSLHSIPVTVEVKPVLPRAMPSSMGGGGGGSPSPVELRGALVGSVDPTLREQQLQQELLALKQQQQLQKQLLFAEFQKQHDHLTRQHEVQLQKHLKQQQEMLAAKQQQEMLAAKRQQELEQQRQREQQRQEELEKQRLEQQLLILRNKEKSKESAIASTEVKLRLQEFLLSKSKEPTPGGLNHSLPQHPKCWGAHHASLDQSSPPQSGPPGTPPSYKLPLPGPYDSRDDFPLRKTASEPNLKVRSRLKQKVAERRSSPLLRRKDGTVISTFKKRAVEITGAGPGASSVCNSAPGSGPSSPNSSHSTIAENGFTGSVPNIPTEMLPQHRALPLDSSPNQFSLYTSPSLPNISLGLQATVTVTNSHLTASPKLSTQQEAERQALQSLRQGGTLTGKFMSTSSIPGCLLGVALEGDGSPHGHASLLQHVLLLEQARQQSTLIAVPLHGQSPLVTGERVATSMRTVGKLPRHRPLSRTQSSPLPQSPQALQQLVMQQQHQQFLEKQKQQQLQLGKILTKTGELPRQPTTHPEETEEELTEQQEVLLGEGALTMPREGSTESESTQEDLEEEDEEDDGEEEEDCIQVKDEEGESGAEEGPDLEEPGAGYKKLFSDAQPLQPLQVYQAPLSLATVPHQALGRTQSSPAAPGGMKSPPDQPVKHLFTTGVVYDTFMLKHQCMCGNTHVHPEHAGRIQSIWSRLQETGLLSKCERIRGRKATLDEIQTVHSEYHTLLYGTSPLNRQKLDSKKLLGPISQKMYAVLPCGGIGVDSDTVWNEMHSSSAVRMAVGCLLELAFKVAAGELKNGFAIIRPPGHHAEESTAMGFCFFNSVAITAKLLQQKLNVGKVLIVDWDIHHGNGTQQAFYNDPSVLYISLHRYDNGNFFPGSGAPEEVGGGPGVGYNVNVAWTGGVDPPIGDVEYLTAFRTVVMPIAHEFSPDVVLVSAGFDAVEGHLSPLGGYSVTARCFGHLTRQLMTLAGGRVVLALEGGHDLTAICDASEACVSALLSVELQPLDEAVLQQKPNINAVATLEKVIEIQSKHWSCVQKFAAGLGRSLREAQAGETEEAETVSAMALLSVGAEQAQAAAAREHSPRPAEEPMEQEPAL

[8] = Clearance in Sprague-Dawley rat at 5 mg/kg, iv measured upto 6 hrs by LC/MS-MS analysis; assay type: ADME, organism-based; conditions: in vivo
[9] = molecular target: CDK3/Cyclin E (Homo sapiens) (UniProt P24864+Q00526); assay: Inhibition of CDK3/cyclinE1 (unknown origin) at 100 nM preincubated for 20 mins followed by [gamma-33P]ATP addition measured after 120 mins in presence of ATP by Hot-SpotSM kinase assay relative to control; assay type: protein-complex assay; conditions: time 140.0 min
Chain of CDK3/Cyclin E (Homo sapiens) (P24864 whole entry, looked up): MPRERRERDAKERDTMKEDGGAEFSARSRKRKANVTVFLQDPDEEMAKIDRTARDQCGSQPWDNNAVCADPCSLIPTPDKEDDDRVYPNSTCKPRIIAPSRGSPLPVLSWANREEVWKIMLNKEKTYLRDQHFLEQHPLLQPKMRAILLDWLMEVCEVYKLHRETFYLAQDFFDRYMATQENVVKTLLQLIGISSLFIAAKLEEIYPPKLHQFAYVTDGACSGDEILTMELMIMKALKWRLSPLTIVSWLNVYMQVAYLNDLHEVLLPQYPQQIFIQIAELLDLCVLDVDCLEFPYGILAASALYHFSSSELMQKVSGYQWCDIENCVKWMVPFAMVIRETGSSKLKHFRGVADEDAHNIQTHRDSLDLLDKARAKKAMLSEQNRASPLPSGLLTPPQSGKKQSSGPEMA
Chain of CDK3/Cyclin E (Homo sapiens) (Q00526 whole entry, looked up): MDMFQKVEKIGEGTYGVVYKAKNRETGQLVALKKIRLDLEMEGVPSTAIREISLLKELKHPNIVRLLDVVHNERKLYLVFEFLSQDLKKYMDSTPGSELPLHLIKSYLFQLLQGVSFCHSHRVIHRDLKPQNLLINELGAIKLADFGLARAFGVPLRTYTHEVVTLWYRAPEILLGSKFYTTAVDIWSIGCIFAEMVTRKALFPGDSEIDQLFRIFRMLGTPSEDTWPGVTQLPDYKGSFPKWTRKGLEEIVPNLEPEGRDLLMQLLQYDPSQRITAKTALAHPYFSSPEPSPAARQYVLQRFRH

U-937 [10] = assay: Induction of apoptosis in human U-937 cells assessed as viable cells at 0.5 uM incubated for 48 hrs by annexin V-FITC/PI satining based flow cytometry (reference value: 90.0 %); assay type: functional; conditions: read-out: Activity
U-937 [11] = assay: Induction of differentiation in human U-937 cells assessed as increase in CD11b positive cells at 1 uM incubated for 48 hrs by FITC staining based flow cytometry (reference value: 2.72 %); assay type: functional
Histone deacetylase 1 = Histone deacetylase 1 (Homo sapiens, UniProt Q13547); assay: Inhibition of recombinant human HDAC1 using HDAC substrate incubated for 30 mins by fluorescence based assay
Chain of Histone deacetylase 1 (Q13547 whole entry): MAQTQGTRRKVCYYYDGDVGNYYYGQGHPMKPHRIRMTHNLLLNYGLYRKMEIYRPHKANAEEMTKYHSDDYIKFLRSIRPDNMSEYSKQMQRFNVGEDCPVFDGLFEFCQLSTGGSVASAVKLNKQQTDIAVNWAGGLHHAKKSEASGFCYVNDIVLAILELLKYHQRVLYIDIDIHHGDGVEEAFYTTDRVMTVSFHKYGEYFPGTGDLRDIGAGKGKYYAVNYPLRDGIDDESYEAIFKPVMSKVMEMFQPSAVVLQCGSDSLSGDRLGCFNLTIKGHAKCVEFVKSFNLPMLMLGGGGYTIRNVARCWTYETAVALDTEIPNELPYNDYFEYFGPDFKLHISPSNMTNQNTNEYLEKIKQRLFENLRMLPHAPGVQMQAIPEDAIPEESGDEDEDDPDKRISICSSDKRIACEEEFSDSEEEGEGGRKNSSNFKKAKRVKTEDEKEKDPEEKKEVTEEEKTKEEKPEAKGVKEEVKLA

U-937 [12] = assay: Induction of apoptosis in human U-937 cells assessed as early apoptotic cells at 0.2 uM incubated for 48 hrs by annexin V-FITC/PI satining based flow cytometry (reference value: 0.945 %); assay type: functional
[13] = molecular target: Cyclin-dependent kinase 2/cyclin E1 (Homo sapiens) (UniProt P24864+P24941); conditions: dose 100.0 nM, time 140.0 min
[14] = molecular target: CDK6/cyclin D3 (Homo sapiens) (UniProt P30281+Q00534); assay: Inhibition of CDK6/cyclinD3 (unknown origin) at 100 nM preincubated for 20 mins followed by [gamma-33P]ATP addition measured after 120 mins in presence of ATP by Hot-SpotSM kinase assay relative to control; assay type: protein-complex assay; conditions: time 140.0 min
U-937 [15] = assay: Induction of apoptosis in human U-937 cells assessed as viable cells at 0.2 uM incubated for 48 hrs by annexin V-FITC/PI satining based flow cytometry (reference value: 90.0 %); assay type: functional; conditions: read-out: Activity
U-937 [16] = assay: Induction of differentiation in human U-937 cells assessed as increase in CD11b positive cells at 0.5 uM incubated for 48 hrs by FITC staining based flow cytometry (reference value: 2.72 %); assay type: functional
HL-60 [17] = assay: Induction of apoptosis in human HL-60 cells assessed as early apoptotic cells at 2 uM incubated for 48 hrs by annexin V-FITC/PI satining based flow cytometry (reference value: 1.24 %); assay type: functional
U-937 [18] = assay: Induction of differentiation in human U-937 cells assessed as increase in CD11b positive cells at 2 uM incubated for 48 hrs by FITC staining based flow cytometry (reference value: 2.72 %); assay type: functional
HL-60 [19] = assay: Induction of apoptosis in human HL-60 cells assessed as late apoptotic cells at 2 uM incubated for 48 hrs by annexin V-FITC/PI satining based flow cytometry (reference value: 1.33 %); assay type: functional
[20] = Cytotoxicity against human Kasumi 1 cells assessed as CD34positive CD38negative leukemic stem cell-like cells sub-population at 0.5 uM incubated for 24 hrs by APC/FITC satining based flow cytometry (reference value: 96.8 %); assay type: functional
Histone deacetylase 2 = Histone deacetylase 2 (Homo sapiens, UniProt Q92769); assay: Inhibition of recombinant human HDAC2 using HDAC substrate incubated for 30 mins by fluorescence based assay
Chain of Histone deacetylase 2 (Q92769 whole entry): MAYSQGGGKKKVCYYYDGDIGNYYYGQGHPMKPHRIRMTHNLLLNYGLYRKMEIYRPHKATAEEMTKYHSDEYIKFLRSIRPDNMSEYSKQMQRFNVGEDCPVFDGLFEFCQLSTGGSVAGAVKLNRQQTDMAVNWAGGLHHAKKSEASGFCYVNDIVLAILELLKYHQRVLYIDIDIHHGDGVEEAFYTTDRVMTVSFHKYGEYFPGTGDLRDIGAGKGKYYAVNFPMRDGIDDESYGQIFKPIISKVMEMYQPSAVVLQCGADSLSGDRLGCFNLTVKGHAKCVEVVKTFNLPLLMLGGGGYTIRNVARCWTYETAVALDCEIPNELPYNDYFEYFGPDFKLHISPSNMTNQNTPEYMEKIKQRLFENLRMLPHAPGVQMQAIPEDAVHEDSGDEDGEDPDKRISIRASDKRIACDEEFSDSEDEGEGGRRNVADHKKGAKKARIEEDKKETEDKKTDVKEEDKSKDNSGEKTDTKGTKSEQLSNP

[21] = molecular target: CDK9/cyclin T1 (Homo sapiens) (UniProt O60563+P50750); assay: Inhibition of CDK9/cyclinT1 (unknown origin) at 100 nM preincubated for 20 mins followed by [gamma-33P]ATP addition measured after 120 mins in presence of ATP by Hot-SpotSM kinase assay relative to control; assay type: protein-complex assay; conditions: time 140.0 min
[22] = molecular target: Cyclin-C/Cyclin-dependent kinase 19 (Homo sapiens) (UniProt Q9BWU1+P24863); assay: Inhibition of CDK19/cyclinC (unknown origin) at 100 nM preincubated for 20 mins followed by [gamma-33P]ATP addition measured after 120 mins in presence of ATP by Hot-SpotSM kinase assay relative to control; assay type: protein-complex assay; conditions: time 140.0 min
[23] = Cytotoxicity against human Kasumi 1 cells assessed as CD34positive CD38negative leukemic stem cell-like cells sub-population at 2 uM incubated for 24 hrs by APC/FITC satining based flow cytometry (reference value: 96.8 %); assay type: functional
HL-60 [24] = assay: Induction of differentiation in human HL-60 cells assessed as increase in CD11b positive cells at 1.5 uM incubated for 24 hrs by FITC staining based flow cytometry (reference value: 1.45 %); assay type: functional
[25] = Cytotoxicity against human Kasumi 1 cells assessed as CD34positive CD38negative leukemic stem cell-like cells sub-population at 1 uM incubated for 24 hrs by APC/FITC satining based flow cytometry (reference value: 96.8 %); assay type: functional
HL-60 [26] = assay: Upregulation of Ac-Histone 3 level in human HL-60 cells incubated for 6 hrs by Western blot analysis; assay type: functional, cell-based; conditions: dose <= 1000.0 nM
U-937 [27] = assay: Induction of apoptosis in human U-937 cells assessed as late apoptotic cells at 0.5 uM incubated for 48 hrs by annexin V-FITC/PI satining based flow cytometry (reference value: 7.10 %); assay type: functional
[28] = molecular target: CDK6/cyclin D1 (Homo sapiens) (UniProt P24385+Q00534); assay: Inhibition of CDK6/cyclinD1 (unknown origin) at 100 nM preincubated for 20 mins followed by [gamma-33P]ATP addition measured after 120 mins in presence of ATP by Hot-SpotSM kinase assay relative to control; assay type: protein-complex assay; conditions: time 140.0 min

SMILES: Nc1cc(F)ccc1NC(=O)c1ccc(CNC(=O)/C=C/c2cccnc2)cc1 [TUCIDINOSTAT]
- Activity (U-937 [1]): 9.77%
- viability at 2.5 µM (U-937 [2]): 87.5%
- Activity (HL-60 [3]): 24.4%
- Activity (HL-60 [4]): 51%
- Activity (U-937 [5]): 5%
- Activity (HL-60 [6]): 71.1%

SMILES: Nc1ccccc1NC(=O)c1ccc(NC(=O)c2n[nH]cc2NC(=O)c2c(Cl)cccc2Cl)cc1
- Activity (U-937 [7]): 1.92%
- IC50 (Histone deacetylase 5): > 1000 nM
- clearance [8]: 88.5 mL/min/kg
- inhibition [9]: 36.3%
- viability at 0.5 µM (U-937 [10]): 79.8%
- Activity (U-937 [11]): 6%
- IC50 (Histone deacetylase 1): 35.7 nM
- Activity (U-937 [12]): 1.56%
- inhibition [13]: 57.5%
- inhibition [14]: 21.4%
- viability at 0.2 µM (U-937 [15]): 87.4%
- Activity (U-937 [16]): 3.96%
- Activity (HL-60 [17]): 35.4%
- Activity (U-937 [18]): 18.5%
- Activity (HL-60 [19]): 54.5%
- Activity [20]: 45.4%
- IC50 (Histone deacetylase 2): 98.8 nM
- inhibition [21]: 98.3%
- inhibition [22]: 23.1%
- Activity [23]: 28.1%
- Activity (HL-60 [24]): 50.9%
- Activity [25]: 35.3%
- Activity (HL-60 [26]): Dose-Dependent Effect
- Activity (U-937 [27]): 14%
- inhibition [28]: 58.2%

From ChEMBL document CHEMBL5346903, “Discovery of novel and bioavailable histone deacetylases and cyclin-dependent kinases dual inhibitor to impair the stemness of leukemia cells” (Eur J Med Chem, 2023)
